Laboratory results reported in ChEMBL document CHEMBL5728527, “Naphthyridines as inhibitors of HPK1” (2021).
Several values for one entry are separate records, joined by “and”; a condition that tells them apart may be missing. Equal values may be shown once.

Each compound was assayed against Mitogen-activated protein kinase kinase kinase kinase 1 (Homo sapiens, UniProt Q92918) (assay: Binding Assay: Lanth: For the binding assay, 4 ul 2×HPK1 and Eu-anti-GST antibody were added to each well of the assay plate using a Multidrop reagent dispenser. The solutions were incubated in a 23 C incubator for 1 h. To each well of the assay plate was added 4 ul 2× Tracer-222 using a Multidrop reagent dispenser. The solutions were again incubated in a 23 C incubator for 1 h. The results of the assay were read using an Envision plate reader with the following parameters: TR_FRET, 340ex/615 and 665em; 100 usec Delay; and 200 usec integration.).
Chain of Mitogen-activated protein kinase kinase kinase kinase 1 (Q92918 whole entry): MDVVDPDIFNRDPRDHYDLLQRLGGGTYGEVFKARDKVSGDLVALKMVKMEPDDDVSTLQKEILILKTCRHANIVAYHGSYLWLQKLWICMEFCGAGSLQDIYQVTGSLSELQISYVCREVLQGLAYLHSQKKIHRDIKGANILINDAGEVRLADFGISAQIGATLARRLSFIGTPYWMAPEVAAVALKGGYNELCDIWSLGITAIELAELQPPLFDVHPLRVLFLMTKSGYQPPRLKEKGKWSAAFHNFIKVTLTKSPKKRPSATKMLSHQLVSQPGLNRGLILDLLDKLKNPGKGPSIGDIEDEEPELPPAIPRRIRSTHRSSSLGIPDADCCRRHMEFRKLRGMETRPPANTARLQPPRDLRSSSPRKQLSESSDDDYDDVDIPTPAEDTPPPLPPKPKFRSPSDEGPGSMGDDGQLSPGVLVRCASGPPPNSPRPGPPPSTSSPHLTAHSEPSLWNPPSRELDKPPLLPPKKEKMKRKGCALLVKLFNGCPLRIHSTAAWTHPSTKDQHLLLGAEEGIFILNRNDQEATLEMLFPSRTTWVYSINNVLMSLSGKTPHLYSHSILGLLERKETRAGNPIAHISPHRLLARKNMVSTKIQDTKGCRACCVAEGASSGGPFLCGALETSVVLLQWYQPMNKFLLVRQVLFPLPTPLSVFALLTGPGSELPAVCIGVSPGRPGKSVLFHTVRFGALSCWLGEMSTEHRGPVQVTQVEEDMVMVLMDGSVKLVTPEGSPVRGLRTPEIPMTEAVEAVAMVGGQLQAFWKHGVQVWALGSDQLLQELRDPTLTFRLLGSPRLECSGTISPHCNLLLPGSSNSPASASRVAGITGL

Row | Ki | SMILES
1 | 10 nM | Cc1ccncc1-c1cc2cc(NC(=O)[C@H]3C[C@@H]3c3ncccn3)ncc2c(N)n1 (racemic)
2 | 5.76 nM | CCc1cc(N)ncc1-c1cc2cc(NC(=O)[C@@H]3C[C@@H]3F)ncc2c(N)n1 (racemic)
3 | 0.567 nM | Cc1ccncc1-c1cc2cc(Nc3cnn([C@H]4CN(C5COC5)CC[C@@H]4O)c3)ncc2c(N)n1 (racemic)
4 | 41.7 nM | Cc1cc(C(C)(C)O)ncc1-c1cc2cc(NC(=O)[C@@H]3C[C@@H]3F)ncc2c(N)n1 (racemic)
5 | 11.7 nM and 10.3 nM | CCC1CCCN1c1cc2cc(NC(=O)[C@@H]3C[C@@H]3F)ncc2c(N)n1 (mixture of isomers)
6 | 2.8 nM | Cc1ccncc1-c1cc2cc(NC(=O)[C@@H]3C[C@H]3F)ncc2c(N)n1 (single isomer, unassigned)
7 | 39 nM | Cc1c(-c2cc3cc(NC(=O)[C@H]4C[C@@H]4C#N)ncc3c(N)n2)cncc1C(F)F (racemic)
8 | 0.113 nM | Cc1ccc(F)cc1-c1cc2cc(NC(=O)[C@H]3C[C@@H]3c3cnn(C)c3)ncc2c(N)n1 (racemic)
9 | 22.5 nM | Cc1cnc(C#N)cc1-c1cc2cc(NC(=O)[C@@H]3C[C@@H]3F)ncc2c(N)n1 (racemic)
10 | 0.501 nM | N#CC[C@H]1C[C@@H]1C(=O)Nc1cc2cc(-c3cnccc3CCO)nc(N)c2cn1 (racemic)
11 | 0.15 nM | Cc1ccncc1-c1cc2cc(NC(=O)[C@@H]3C[C@H]3c3cnsc3)ncc2c(N)n1 (racemic)
12 | 172 nM | CCC1CCCN1c1cc2cc(NC(=O)[C@H]3C[C@H]3F)ncc2c(N)n1 (mixture of isomers)
13 | 4.88 nM | CCc1cc(OC)ncc1-c1cc2cc(NC(=O)[C@@H]3C[C@@H]3F)ncc2c(N)n1 (racemic)
14 | 6.8 nM | Cc1ccncc1-c1cc2cc(NC(=O)[C@@H]3C[C@]34CCNC4)ncc2c(N)n1 (racemic)
15 | 17.1 nM | CC(=O)OC[C@@]1(C)C[C@@H]1C(=O)Nc1cc2cc(-c3cnccc3C)nc(N)c2cn1 (racemic)
16 | 7.36 nM | CCc1ccncc1-c1cc2cc(NC(=O)[C@@H]3C[C@H]3C#N)ncc2c(N)n1 (single isomer, unassigned)
17 | 0.047 nM | Cc1ccncc1-c1nc(N)c2cnc(NC(=O)[C@@H]3C[C@H]3c3cn[nH]c3)cc2c1Cl (racemic)
18 | 61.3 nM | Cc1ccncc1-c1cc2cc(NCC3CC3(F)F)ncc2c(N)n1 (racemic)
19 | 7.28 nM | CC(O)Cc1ccncc1-c1cc2cc(NC(=O)[C@H]3C[C@@H]3C#N)ncc2c(N)n1 (mixture of isomers)
20 | 5.03 nM | Cc1ccnc(C)c1-c1cc2cc(NC(=O)[C@@H]3C[C@@H]3F)ncc2c(N)n1 (racemic)
21 | 440 nM | CCc1cc(=O)n(C)cc1-c1cc2cc(NC(=O)[C@@H]3C[C@@H]3F)ncc2c(N)n1 (racemic)
22 | 0.135 nM | Nc1nc(-c2cncc3c2OCCN3)cc2cc(NC(=O)[C@@H]3C[C@@H]3F)ncc12 (racemic)
23 | 3.14 nM | Cn1cc([C@H]2C[C@@H]2C(=O)Nc2cc3cc(-c4cnc5c(=O)n(C)ncc5c4)nc(N)c3cn2)cn1 (racemic)
24 | 2.4 nM | Cc1ccncc1-c1cc2cc(NC(=O)[C@@H]3C[C@H]3CN)ncc2c(N)n1 (racemic)
25 | 6.14 nM | Cc1cc(C(=O)N(C)C)ncc1-c1cc2cc(NC(=O)[C@H]3C[C@@H]3c3cnn(C)c3)ncc2c(N)n1 (racemic)
26 | 16 nM | Cc1[nH]ncc1-c1cc2cc(NC(=O)[C@@H]3C[C@H]3C(F)(F)F)ncc2c(N)n1 (racemic)

Row | Ki | SMILES
27 | 1.1 nM | Cc1ccncc1-c1cc2cc(NC(=O)[C@H]3C[C@@H]3CO)ncc2c(N)n1 (racemic)
28 | 25.8 nM | CCc1ccncc1-c1cc2cc(NC(=O)[C@@H]3C[C@@H]3C(N)=O)ncc2c(N)n1 (racemic)
29 | 1.31 nM and 0.583 nM | CCc1ccncc1-c1cc2cc(NC(=O)[C@H]3C[C@@H]3C#N)ncc2c(N)n1
30 | 2.3 nM | Cc1ccncc1-c1cc2cc(NC(=O)[C@@H]3C[C@@H]3C)ncc2c(N)n1 (racemic)
31 | 1.42 nM | Cc1ccncc1-c1cc2cc(NC(=O)C3C[C@@H]3C(F)(F)F)ncc2c(N)n1 (some centres not stated)
32 | 0.837 nM | Cc1ccncc1-c1cc2cc(NC(=O)[C@@H]3[C@@H](C)[C@H]3CC#N)ncc2c(N)n1
33 | 0.58 nM | Cc1ccncc1-c1cc2cc(NC(=O)[C@@H]3C[C@H]3c3cc[nH]n3)ncc2c(N)n1 (racemic)
34 | 6.5 nM | Cc1c[nH]c(=O)cc1-c1cc2cc(NC(=O)[C@@H]3C[C@@H]3F)ncc2c(N)n1 (racemic)
35 | 0.154 nM | Nc1nc(-c2cncc3c2CCN3)cc2cc(NC(=O)[C@@H]3C[C@@H]3F)ncc12 (racemic)
36 | 7.9 nM | Cc1cc2[nH]cnc2cc1-c1cc2cc(NC(=O)[C@@H]3C[C@@H]3F)ncc2c(N)n1 (racemic)
37 | 0.57 nM | Cc1ccncc1-c1cc2cc(NC(=O)[C@H]3C[C@@H]3CC#N)ncc2c(N)n1 (racemic)
38 | 11.8 nM | Cn1cc([C@H]2C[C@@H]2C(=O)Nc2cc3cc(-c4cnc(N)c(C(F)(F)F)c4)nc(N)c3cn2)cn1 (racemic)
39 | 0.225 nM | C=Cc1c(-c2cnccc2C)nc(N)c2cnc(NC(=O)[C@H]3C[C@@H]3CC#N)cc12 (racemic)
40 | 6.01 nM | Cc1ccncc1-c1cc2cc(NC(=O)[C@H]3[C@H](C)[C@@H]3CC#N)ncc2c(N)n1
41 | 0.19 nM | Cc1ccncc1-c1nc(N)c2cnc(NC(=O)[C@@H]3C[C@H]3c3cn[nH]c3)cc2c1F (racemic)
42 | 1.35 nM | Cc1ccncc1-c1cc2cc(NC(=O)C3CC34CC4)ncc2c(N)n1 (racemic)
43 | 0.972 nM | Cc1ccncc1-c1cc2cc(NC(=O)[C@H]3[C@@H]4CC(N5CCOCC5)C[C@@H]43)ncc2c(N)n1 (some centres not stated)
44 | 0.509 nM | COC(=O)c1cc(C)c(-c2cc3cc(NC(=O)[C@H]4C[C@@H]4c4cnn(C)c4)ncc3c(N)n2)cn1
45 | 1.17 nM | Cc1cc(C(=O)OCc2ccccc2)ncc1-c1cc2cc(NC(=O)[C@H]3C[C@@H]3c3cnn(C)c3)ncc2c(N)n1 (racemic)
46 | 1.1 nM | Cc1c(N)cncc1-c1cc2cc(NC(=O)[C@H]3C[C@@H]3C(F)(F)F)ncc2c(N)n1 (racemic)
47 | 0.051 nM | Cc1ccnc(-c2ccccc2)c1-c1cc2cc(NC(=O)[C@H]3C[C@@H]3CC#N)ncc2c(N)n1 (racemic)
48 | 1.77 nM | Nc1nc(-c2cncc3c2OCC(=O)N3)cc2cc(NC(=O)[C@@H]3C[C@@H]3F)ncc12 (racemic)
49 | 3.3 nM | Cc1cc(-n2cccn2)ncc1-c1cc2cc(NC(=O)[C@H]3C[C@@H]3c3cnn(C)c3)ncc2c(N)n1
50 | 3.2 nM | Cc1ncc(N)c(C)c1-c1cc2cc(NC(=O)[C@@H]3C[C@H]3C)ncc2c(N)n1 (racemic)
51 | 8.1 nM | Cc1cc(C(=O)NCC(F)(F)F)ccc1-c1cc2cc(NC(=O)[C@@H]3C[C@H]3C#N)ncc2c(N)n1 (relative stereo)
52 | 18.3 nM | Cc1cnc(CO)cc1-c1cc2cc(NC(=O)[C@@H]3C[C@@H]3F)ncc2c(N)n1 (racemic)

Row | Ki | SMILES
53 | 2.81 nM | Cc1cc2c(cc1-c1cc3cc(NC(=O)[C@@H]4C[C@@H]4F)ncc3c(N)n1)CC(=O)N2 (racemic)
54 | 6.49 nM | N#C[C@@H]1C[C@H]1C(=O)Nc1cc2cc(-c3cnccc3C(F)(F)F)nc(N)c2cn1 (racemic)
55 | 2.14 nM | COC1CN([C@H]2C[C@@H]3[C@H](C2)[C@H]3C(=O)Nc2cc3cc(-c4cnccc4C)nc(N)c3cn2)C1
56 | 21.2 nM | COCCc1ccncc1-c1cc2cc(NC(=O)[C@H]3C[C@@H]3C#N)ncc2c(N)n1 (racemic)
57 | 89 nM | Cc1cc(C)c(-c2cc3cc(NC(=O)[C@@H]4C[C@H]4C#N)ncc3c(N)n2)cc1C(N)=O (racemic)
58 | 1.85 nM | C[C@@H]1C[C@H]1C(=O)Nc1cc2cc(-c3cnn(C)c3)nc(N)c2cn1 (racemic)
59 | 2.26 nM | Cc1cc(-c2ccn(C)n2)ncc1-c1cc2cc(NC(=O)[C@H]3C[C@@H]3c3cnn(C)c3)ncc2c(N)n1
60 | 4.9 nM | Cc1ccncc1-c1cc2cc(NC(=O)[C@H]3[C@@H]4COC[C@@H]43)ncc2c(N)n1 (single isomer, unassigned)
61 | 18.9 nM | Cc1ncc(-c2cc3cc(NC(=O)[C@@H]4C[C@H]4C#N)ncc3c(N)n2)n1C (relative stereo)
62 | 0.38 nM | Cc1ccncc1-c1cc2cc(NC(=O)[C@@H]3C[C@@H]3F)ncc2c(N)n1 (racemic)
63 | 10.6 nM and 3.21 nM | CCc1ccncc1-c1cc2cc(NC(=O)[C@@H]3C[C@@H]3C#N)ncc2c(N)n1
64 | 0.23 nM | Cc1ccncc1-c1cc2cc(NC(=O)[C@@H]3C[C@H]3c3cnn(C)c3)ncc2c(N)n1 (racemic)
65 | 101 nM | Cn1ccc2cncc(-c3cc4cc(NC(=O)[C@@H]5C[C@@H]5F)ncc4c(N)n3)c21 (racemic)
66 | 1.4 nM | Cc1ccncc1-c1cc2cc(NC(=O)[C@@H]3C[C@H]3C(F)(F)F)ncc2c(N)n1 (racemic)
67 | 29.8 nM | Cc1ccncc1-c1cc2cc(NC(=O)C(C)C)ncc2c(N)n1
68 | 14.6 nM | CC(=O)OC[C@]1(C)C[C@@H]1C(=O)Nc1cc2cc(-c3cnccc3C)nc(N)c2cn1 (racemic)
69 | 1.73 nM | Cc1cc(N2CCC2=O)ncc1-c1cc2cc(NC(=O)[C@H]3C[C@@H]3c3cnn(C)c3)ncc2c(N)n1
70 | 12 nM | Cc1nn(C)c(C)c1-c1cc2cc(NC(=O)[C@H]3C[C@@H]3C(F)(F)F)ncc2c(N)n1 (racemic)
71 | 3.64 nM | CCc1ccncc1-c1cc2cc(NC(=O)[C@H]3C[C@H]3C#N)ncc2c(N)n1 (single isomer, unassigned)
72 | 0.763 nM | Cc1ccncc1-c1cc2cc(NC(=O)[C@H]3[C@@H](C)[C@@H]3CC#N)ncc2c(N)n1
73 | 0.188 nM | Cc1ccncc1-c1cc2cc(NC(=O)[C@@H]3[C@H](C)[C@H]3CC#N)ncc2c(N)n1
74 | 163 nM | CCc1ccncc1-c1cc2cc(NC(=O)[C@@H]3C[C@H]3C(=O)C3CC(O)C3)ncc2c(N)n1 (mixture of isomers)
75 | 4.06 nM | Cc1ccncc1-c1cc2cc(NC(=O)[C@@H]3C[C@H]3C#N)ncc2c(N)n1 (single isomer, unassigned)
76 | 4.4 nM | Cc1ccncc1-c1nc(N)c2cnc(NC(=O)[C@H]3C[C@@H]3C#N)cc2c1F (racemic)
77 | 0.98 nM | CCOc1ccncc1-c1cc2cc(NC(=O)[C@H]3C[C@@H]3C#N)ncc2c(N)n1 (racemic)
